# Data reported in ChEMBL document CHEMBL1131172 (J Med Chem, 1998).
# How the values were obtained:
# 786-0 = test: Inhibition of the growth of renal cancer(786-0) cell line. value in parentheses is percent inhibition at 0.01 uM; type: functional; settings: Homo sapiens
# A549 [1] = test: Inhibition of the growth of non-small-cell lung cancer (A549/ATCC) cell line; type: functional; settings: Homo sapiens
# A549 [2] = test: Inhibition of the growth of non-small-cell lung cancer (A549/ATCC) cell line at 0.01 uM; type: functional; settings: Homo sapiens
# CAKI-1 [3] = test: Inhibition of the growth of renal cancer(CAKI-1) cell line at 0.01 uM; type: functional; settings: Homo sapiens
# CAKI-1 [4] = test: Inhibition of the growth of renal cancer(CAKI-1) cell line; type: functional; settings: Homo sapiens
# DU-145 [5] = test: Inhibition of the growth of prostate cancer(DU-145) cell line; type: functional; settings: Homo sapiens
# DU-145 [6] = test: Inhibition of the growth of prostate cancer(DU-145) cell line at 0.01 uM; type: functional; settings: Homo sapiens
# HCT-15 [7] = test: Inhibition of the growth of colon cancer(HCT-15) cell line. value in parentheses is percent inhibition at 0.01 uM; type: functional; settings: Homo sapiens
# HCT-15 [8] = test: inhibition of the growth of colon cancer(HCT-15) cell line; type: functional; settings: Homo sapiens
# HCT-116 [9] = test: inhibition of the growth of colon cancer(HCT116) cell line; type: functional; settings: Homo sapiens
# HCT-116 [10] = test: Inhibition of the growth of colon cancer(HCT116) cell line at 0.01 uM; type: functional; settings: Homo sapiens
# KM12 = test: inhibition of the growth of colon cancer(KM-12) cell line at 0.01 uM; type: functional; settings: Homo sapiens
# IGROV-1 [11] = test: Inhibition of the growth of ovarian cancer(IGROVI) cell line; type: functional; settings: Homo sapiens
# M14 [12] = test: Inhibition of the growth of melanoma cancer (M14) cell line at 0.01 uM; type: functional; settings: Homo sapiens
# MOLT-4 = test: Inhibition of the growth of leukemia (MOLT-4) cell line.; type: functional; settings: Homo sapiens
# NCI/ADR-RES [13] = test: Inhibition of the growth of breast cancer (MCF7/ADR-RES) cell line; type: functional; settings: Homo sapiens
# NCI/ADR-RES [14] = test: Inhibition of the growth of breast cancer (MCF7/ADR-RES) cell line at 0.01 uM; type: functional; settings: Homo sapiens
# MDA-MB-435 [15] = test: Inhibition of the growth of breast cancer (MDA-MB-435) cell line; type: functional; settings: Homo sapiens
# MDA-N [16] = test: Inhibition of the growth of breast cancer(MDA-N) cell line; type: functional; settings: Homo sapiens
# MDA-N [17] = test: Inhibition of the growth of breast cancer(MDA-N) cell line at 0.01 uM; type: functional; settings: Homo sapiens
# MDA-MB-435 [18] = test: Inhibition of the growth of breast cancer (MDA-MB-435) cell line at 0.01 uM; type: functional; settings: Homo sapiens
# M14 [19] = test: Inhibition of the growth of melanoma cancer (M14) cell line; type: functional; settings: Homo sapiens
# MCF7 = test: Inhibition of the growth of breast cancer (MCF-7) cell line; type: functional; settings: Homo sapiens
# NCI-H522 [20] = test: inhibition of the growth of non-small-cell lung cancer (NCI-H522) cell line; type: functional; settings: Homo sapiens
# NCI-H522 [21] = test: Inhibition of the growth of non-small-cell lung cancer (NCI-H522) cell line at 0.01 uM; type: functional; settings: Homo sapiens
# NCI-H460 [22] = test: Inhibition of the growth of non-small-cell lung cancer (NCI-H460) cell line; type: functional; settings: Homo sapiens
# NCI-H23 [23] = test: Inhibition of the growth of non-small-cell lung cancer (NCI-H23) cell line; type: functional; settings: Homo sapiens
# OVCAR-8 [24] = test: Inhibition of the growth of ovarian cancer(OVCAR-8) cell line; type: functional; settings: Homo sapiens
# NCI-H460 [25] = test: inhibition of the growth of non-small-cell lung cancer (NCI-H460) cell line at 0.01 uM; type: functional; settings: Homo sapiens
# NCI-H23 [26] = test: Inhibition of the growth of non-small-cell lung cancer (NCI-H23) cell line at 0.01 uM; type: functional; settings: Homo sapiens
# RPMI-8226 [27] = test: Inhibition of the growth of leukemia (RPMI-8226) cell line at 0.01 uM; type: functional; settings: Homo sapiens
# RPMI-8226 [28] = test: Inhibition of the growth of leukemia (RPMI-8226) cell line; type: functional; settings: Homo sapiens
# SF-268 [29] = test: Inhibition of the growth of CNS cancer(SF-268) cell line at 0.01 uM; type: functional; settings: Homo sapiens
# SF-268 [30] = test: inhibition of the growth of CNS cancer(SF-268) cell line; type: functional; settings: Homo sapiens
# SF-295 [31] = test: inhibition of the growth of CNS cancer(SF-295) cell line; type: functional; settings: Homo sapiens
# SF-295 [32] = test: Inhibition of the growth of CNS cancer(SF-295) cell line at 0.01 uM; type: functional; settings: Homo sapiens
# SNB-19 [33] = test: inhibition of the growth of CNS cancer(SNB-19) cell line; type: functional; settings: Homo sapiens
# SNB-19 [34] = test: Inhibition of the growth of CNS cancer(SNB-19) cell line at 0.01 uM; type: functional; settings: Homo sapiens
# SF-539 = test: inhibition of the growth of CNS cancer(SF-539) cell line. value in parentheses is percent inhibition at 0.01 uM; type: functional; settings: Homo sapiens
# SR [35] = test: Inhibition of the growth of leukemia(SR) cell line. value in parentheses is percent inhibition at 0.01 uM at 0.01 uM; type: functional; settings: Homo sapiens
# SK-MEL-5 [36] = test: Inhibition of the growth of melanoma cancer (SK-MEL-5) cell line at 0.01 uM; type: functional; settings: Homo sapiens
# SK-MEL-5 [37] = test: Inhibition of the growth of melanoma cancer (SK-MEL-5) cell line; type: functional; settings: Homo sapiens
# UO-31 [38] = test: Inhibition of the growth of renal cancer(UO-31) cell line; type: functional; settings: Homo sapiens
# UO-31 [39] = test: Inhibition of the growth of renal cancer(UO-31) cell line at 0.01 uM; type: functional; settings: Homo sapiens
# IGROV-1 [40] = test: Inhibition of the growth of ovarian cancer(IGROVI) cell line at 0.01 uM; type: functional; settings: Homo sapiens
# OVCAR-8 [41] = test: Inhibition of the growth of ovarian cancer(OVCAR-8) cell line at 0.01 uM; type: functional; settings: Homo sapiens
# SR [42] = test: Inhibition of the growth of leukemia(SR) cell line. value in parentheses is percent inhibition at 0.01 uM; type: functional; settings: Homo sapiens
# [43] = target: T1, Bifunctional dihydrofolate reductase-thymidylate synthase (Toxoplasma gondii, UniProt Q07422)
# T1 sequence (Q07422 whole entry): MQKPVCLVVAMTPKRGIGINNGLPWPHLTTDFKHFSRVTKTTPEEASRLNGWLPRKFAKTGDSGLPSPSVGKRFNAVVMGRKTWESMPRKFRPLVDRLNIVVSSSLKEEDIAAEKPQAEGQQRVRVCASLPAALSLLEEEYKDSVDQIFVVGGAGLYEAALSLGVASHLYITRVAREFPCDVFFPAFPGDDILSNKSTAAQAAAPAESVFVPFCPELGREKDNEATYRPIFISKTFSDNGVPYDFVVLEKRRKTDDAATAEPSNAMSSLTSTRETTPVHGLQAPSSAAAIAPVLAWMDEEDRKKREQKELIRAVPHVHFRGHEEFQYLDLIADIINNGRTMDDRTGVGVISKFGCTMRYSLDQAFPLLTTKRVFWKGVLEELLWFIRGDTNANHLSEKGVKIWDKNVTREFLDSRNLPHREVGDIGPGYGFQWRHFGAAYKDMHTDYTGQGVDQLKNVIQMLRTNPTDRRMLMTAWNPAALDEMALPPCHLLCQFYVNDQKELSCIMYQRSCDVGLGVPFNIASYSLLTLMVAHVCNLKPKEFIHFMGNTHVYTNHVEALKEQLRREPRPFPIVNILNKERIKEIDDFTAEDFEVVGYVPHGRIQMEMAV
# Description: Inhibitory activity against dihydrofolate reductase (DHFR) from Toxoplasma gondii
# Dihydrofolate reductase [44] = target: T2, Dihydrofolate reductase (Pneumocystis carinii, UniProt P16184)
# T2 sequence (P16184 whole entry): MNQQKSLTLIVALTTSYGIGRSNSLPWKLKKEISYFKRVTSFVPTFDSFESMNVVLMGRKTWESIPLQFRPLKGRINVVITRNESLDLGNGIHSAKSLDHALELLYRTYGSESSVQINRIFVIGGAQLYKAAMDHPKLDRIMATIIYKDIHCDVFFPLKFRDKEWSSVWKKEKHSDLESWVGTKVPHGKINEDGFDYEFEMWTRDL
# Description: Inhibitory activity against dihydrofolate reductase (DHFR) from Pneumocystis carinii
# Dihydrofolate reductase [45] = target: T3, Dihydrofolate reductase (Rattus norvegicus, UniProt Q920D2)
# T3 sequence (Q920D2 whole entry): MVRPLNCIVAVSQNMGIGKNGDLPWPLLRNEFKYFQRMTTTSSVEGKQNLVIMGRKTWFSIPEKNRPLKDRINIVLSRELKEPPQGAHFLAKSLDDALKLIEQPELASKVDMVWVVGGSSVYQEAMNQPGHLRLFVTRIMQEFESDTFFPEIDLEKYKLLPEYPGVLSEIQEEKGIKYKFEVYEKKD
# Description: Inhibitory activity against dihydrofolate reductase (DHFR) from rat liver
# NCI-H322M = test: Inhibition of the growth of non-small-cell lung cancer (NCI-H322M) cell line; settings: Homo sapiens
smiles,measurement,setting,value
COc1ccc(N(C)c2ccc3nc(N)nc(N)c3n2)cc1,GI50,786-0,590 nM
same,GI50,A549 [1],< 10 nM
same,inhibition at 0.01 µM,A549 [2],67%
same,inhibition at 0.01 µM,CAKI-1 [3],59%
same,GI50,CAKI-1 [4],< 10 nM
same,GI50,DU-145 [5],< 10 nM
same,inhibition at 0.01 µM,DU-145 [6],51%
same,inhibition at 0.01 µM,HCT-15 [7],67%
same,GI50,HCT-15 [8],< 10 nM
same,GI50,HCT-116 [9],< 10 nM
same,inhibition at 0.01 µM,HCT-116 [10],83%
same,GI50,KM12,20 nM
same,GI50,IGROV-1 [11],< 10 nM
same,inhibition at 0.01 µM,M14 [12],55%
same,GI50,MOLT-4,20 nM
same,GI50,NCI/ADR-RES [13],< 10 nM
same,inhibition at 0.01 µM,NCI/ADR-RES [14],100%
same,GI50,MDA-MB-435 [15],< 10 nM
same,GI50,MDA-N [16],< 10 nM
same,inhibition at 0.01 µM,MDA-N [17],66%
same,inhibition at 0.01 µM,MDA-MB-435 [18],68%
same,GI50,M14 [19],< 10 nM
same,GI50,MCF7,60 nM
same,GI50,NCI-H522 [20],< 10 nM
same,inhibition at 0.01 µM,NCI-H522 [21],53%
same,GI50,NCI-H460 [22],< 10 nM
same,GI50,NCI-H23 [23],< 10 nM
same,GI50,OVCAR-8 [24],< 10 nM
same,inhibition at 0.01 µM,NCI-H460 [25],84%
same,inhibition at 0.01 µM,NCI-H23 [26],54%
same,inhibition at 0.01 µM,RPMI-8226 [27],59%
same,GI50,RPMI-8226 [28],< 10 nM
same,inhibition at 0.01 µM,SF-268 [29],68%
same,GI50,SF-268 [30],< 10 nM
same,GI50,SF-295 [31],< 10 nM
same,inhibition at 0.01 µM,SF-295 [32],62%
same,GI50,SNB-19 [33],< 10 nM
same,inhibition at 0.01 µM,SNB-19 [34],51%
same,GI50,SF-539,30 nM
same,inhibition at 0.01 µM,SR [35],53%
same,inhibition at 0.01 µM,SK-MEL-5 [36],65%
same,GI50,SK-MEL-5 [37],< 10 nM
same,GI50,UO-31 [38],< 10 nM
same,inhibition at 0.01 µM,UO-31 [39],74%
same,inhibition at 0.01 µM,IGROV-1 [40],62%
same,inhibition at 0.01 µM,OVCAR-8 [41],90%
same,GI50,SR [42],< 10 nM
same,IC50,[43],8.6 nM
same,IC50,Dihydrofolate reductase [44],220 nM
same,IC50,Dihydrofolate reductase [45],6.8 nM
same,GI50,NCI-H322M,20 nM
